Assay results taken from patent publication US20240099989A1, “AGENT FOR PREVENTING OR IMPROVING PERIPHERAL NEUROPATHY” (KINKI UNIVERSITY, priority 2021, published 2024).
Like-named read-outs stand apart in the source and are kept apart here.

Tested on: Peripheral Neuropathy in a Mouse Caused by Paclitaxel
Type: in vivo, Balb/c mice
Text: (§1) Six to seven-week-old female Balb/c mice were used for the tests as with Example 1. All the mice were acclimated for seven days after arrival. Then, the mice were grouped into the following four groups: a control group, a group receiving paclitaxel, a group receiving xylitol, and a group receiving paclitaxel and xylitol (a group receiving paclitaxel+xylitol). Each group consisted of five mice.
On Day 8 of acclimation, the mice in the group receiving paclitaxel and the group receiving paclitaxel+xylitol were intraperitoneally administered with paclitaxel at a dose of 6 mg/kg. This day was designated as the first day of the administration (Day 0). Thereafter, these mice were intraperitoneally administered with paclitaxel at the same dose on Day 7 and Day 14 for a total of 3 doses.
The mice in the group receiving 100 mg/kg xylitol were orally administered with xylitol at a dose of 100 mg/kg daily from Day 0. The mice in the group receiving paclitaxel+100 mg/kg xylitol were orally administered with xylitol at a dose of 100 mg/kg daily from Day 6 of administration.
A test was performed on the mice in the four groups described in (6) of the present example (Example 2) to examine the effect of xylitol on paresthesia that is caused by a low temperature stimulus. The mice in respective groups were placed on a cold plate set at 10° C., and withdrawal response time (latent time) was measured. It is presumed that a shorter latent time reflects a greater degree of shunning the low temperature stimulus by the cold plate. […]
The mice in the group receiving 100 mg/kg D-threitol were orally administered with D-threitol at a dose of 100 mg/kg daily from Day 0. The mice in the group receiving paclitaxel+100 mg/kg D-threitol were orally administered with D-threitol at a dose of 100 mg/kg daily from Day 6 of administration.
A test was performed on the mice in the four groups described in (4) of the present example (Example 4) to examine the effect of D-threitol on paresthesia that is caused by a low temperature stimulus. The mice in respective groups were placed on a cold plate set at 10° C., and withdrawal response time (latent time) was measured. It is presumed that a shorter latent time reflects a greater degree of shunning the low temperature stimulus by the cold plate.
as §1, with “L-talitol,” for “xylitol,”, “L-talitol” for “xylitol”, “paclitaxel+L-talitol).” for “paclitaxel+xylitol).”
On Day 8 of acclimation, the mice in the group receiving paclitaxel and the group receiving paclitaxel+L-talitol were intraperitoneally administered with paclitaxel at a dose of 6 mg/kg. This day was designated as Day 0 of administration. Thereafter, these mice were intraperitoneally administered with paclitaxel at a daily dose of 6 mg/kg on Day 7 and Day 14.
The mice in the group receiving L-talitol and the group receiving paclitaxel+L-talitol were orally administered with L-talitol at a dose of 5 mg/kg daily from Day 0.
A cold plate test was performed to examine the effect of L-talitol on paresthesia that is caused by a low temperature stimulus. The mice in the four groups described in (4) of the present example (Example 5) were placed on a cold plate set at 10° C., and withdrawal response time (latent time) was measured. It is presumed that a shorter latent time reflects a greater degree of shunning the low temperature stimulus by the cold plate.
On Day 8 of acclimation, the mice in the group receiving paclitaxel and the group receiving paclitaxel+L-talitol were intraperitoneally administered with paclitaxel at a dose of 6 mg/kg. This day was designated as the first day of the administration (Day 0). […]

[1] = 6 mg/kg paclitaxel + 5 mg/kg test substance orally daily from Day 0 (prevention)
[2] = 6 mg/kg paclitaxel + 100 mg/kg orally daily from Day 6, on Day 12, vs group receiving 6 mg/kg paclitaxel

Compound | withdrawal response time (latent time) [1] | withdrawal response time (latent time) [2]
OC[C@H](O)[C@H](O)[C@H](O)[C@@H](O)CO [L-talitol] | approximately similar to that of the control group | significantly longer withdrawal response time
OC[C@@H](O)[C@H](O)CO [D-threitol] | approximately similar to that of the control group | significantly longer withdrawal response time
OC[C@@H](O)[C@H](O)[C@@H](O)CO [xylitol] | approximately similar to that of the control group | significantly longer withdrawal response time
